# Key:
# Format in all cases: toxicity, cell-based
# HEK-293T = test: Incucyte cell viability with HEK293T; settings: human, 10 µM, compound concentration 10 uM
# Fibroblast = test: Incucyte cell viability with human fibroblast; settings: 10 µM, compound concentration 10 uM
# U2OS = test: Incucyte cell viability with U2OS; settings: human, 10 µM, compound concentration 10 uM
# Further: unitless GR value; below 1 slowed growth and below 0 cell loss.
Structure (SMILES),"Growth Rate (HEK-293T; 0 h, replicate number 1)","Growth Rate (HEK-293T; 0 h, replicate number 2)","Growth Rate (HEK-293T; 18 h, replicate number 1)","Growth Rate (HEK-293T; 18 h, replicate number 2)","Growth Rate (HEK-293T; 24 h, replicate number 2)","Growth Rate (Fibroblast; 0 h, replicate number 1)","Growth Rate (Fibroblast; 6 h, replicate number 1)","Growth Rate (Fibroblast; 6 h, replicate number 2)","Growth Rate (Fibroblast; 12 h, replicate number 2)","Growth Rate (Fibroblast; 18 h, replicate number 2)","Growth Rate (Fibroblast; 24 h, replicate number 2)","Growth Rate (U2OS; 0 h, replicate number 1)","Growth Rate (U2OS; 6 h, replicate number 1)","Growth Rate (U2OS; 12 h, replicate number 1)","Growth Rate (U2OS; 12 h, replicate number 2)","Growth Rate (U2OS; 18 h, replicate number 1)","Growth Rate (U2OS; 18 h, replicate number 2)","Growth Rate (U2OS; 24 h, replicate number 1)","Growth Rate (Fibroblast; 18 h, replicate number 1)","Growth Rate (Fibroblast; 24 h, replicate number 1)",further results
C[C@@H](CN1CC[C@@]2(C)c3cccc(O)c3C[C@@H]1C2(C)C)OCc1ccccc1.Cl,0.44,-0.22,0.77,0.95,0.96,-1,0.03,-0.28,0.93,1,0.98,-0.32,0.53,0.61,0.78,0.81,0.98,0.79,,,"Growth Rate (HEK-293T; 6 h, replicate number 1): 0.31; Growth Rate (HEK-293T; 12 h, replicate number 1): 0.74; Growth Rate (HEK-293T; 24 h, replicate number 1): 0.8; Growth Rate (U2OS; 6 h, replicate number 2): 0.85"
CN1C(=O)Cc2ccc(-c3ccc(C[C@@H](C#N)NC(=O)[C@H]4N[C@@H]5CC[C@H]4C5)c(F)c3)cc21,0.62,,0.94,0.88,0.95,-1,0.56,-0.72,0.43,0.5,0.85,,0.49,,,,,,0.72,0.86,"Growth Rate (HEK-293T; 12 h, replicate number 1): 0.89; Growth Rate (HEK-293T; 12 h, replicate number 2): 0.82; Growth Rate (HEK-293T; 24 h, replicate number 1): 0.87; Growth Rate (Fibroblast; 12 h, replicate number 1): 0.65"
COc1cc(-c2cn(C)c(=O)c3cnccc23)c(OC)cc1CN(C)C,0.44,,0.77,0.68,0.77,,0.79,0.69,0.23,0.53,0.5,0.29,0.38,0.8,,,,0.97,0.8,0.8,"Growth Rate (HEK-293T; 6 h, replicate number 2): 0.24; Growth Rate (HEK-293T; 12 h, replicate number 2): 0.4; Growth Rate (HEK-293T; 24 h, replicate number 1): 0.68; Growth Rate (Fibroblast; 12 h, replicate number 1): 0.84"
CSc1nc2c(c(=O)n(C)c(=O)n2C)n1C,0.12,,,1,,-1,0.03,-0.57,,,0.92,0.57,0.84,,0.74,,0.86,,0.87,0.71,"Growth Rate (HEK-293T; 6 h, replicate number 2): -0.14; Growth Rate (HEK-293T; 12 h, replicate number 2): 0.78; Growth Rate (Fibroblast; 0 h, replicate number 2): -0.52; Growth Rate (Fibroblast; 12 h, replicate number 1): 0.58; Growth Rate (U2OS; 6 h, replicate number 2): 0.49; Growth Rate (U2OS; 24 h, replicate number 2): 0.97"
COCCOCn1c(S(C)(=O)=O)nc2c1c(=O)n(C)c(=O)n2C,0.35,0.7,0.74,0.92,0.9,-1,-0.48,-0.97,0.03,0.24,0.7,0.81,0.11,0.55,,0.93,,0.76,0.05,0.45,"Growth Rate (HEK-293T; 24 h, replicate number 1): 0.86; Growth Rate (Fibroblast; 12 h, replicate number 1): 0"
Cc1nnc2n1-c1sc3c(c1C(c1ccccc1Cl)=NC2)C[C@H](C(=O)N1CCOCC1)C3,-0.2,-0.35,,,,,,-0.71,0.19,0.64,0.94,,0.8,,0.83,,0.93,0.94,,,"Growth Rate (HEK-293T; 6 h, replicate number 1): 0.78; Growth Rate (U2OS; 24 h, replicate number 2): 0.93"
Cc1cc(CN)cc(C)c1-c1ncn(C)c1-c1cncn1C.Cl,-0.38,0.26,0.98,,,-1,0.96,-0.33,0.59,0.77,0.86,,,,0.69,,0.99,,,,
C=C[C@@]12CCc3cc(O)ccc3[C@H]1CC[C@@]1(C)[C@H]2CC[C@@H]1O,0.4,-0.37,,,,-1,0.24,0.88,0.29,0.95,0.71,0.1,0.77,0.99,0.95,,0.93,,0.92,0.83,"Growth Rate (Fibroblast; 12 h, replicate number 1): 0.86; Growth Rate (U2OS; 6 h, replicate number 2): 0.96; Growth Rate (U2OS; 24 h, replicate number 2): 0.91"
CO[C@H](C)CN1CC[C@@]2(C)c3ccc(O)cc3C[C@@H]1C2(C)C.Cl,0.75,0.63,,,,,0.46,0.74,,,,,0.63,0.93,0.77,0.87,,0.87,0.79,0.96,"Growth Rate (Fibroblast; 0 h, replicate number 2): 0.54; Growth Rate (Fibroblast; 12 h, replicate number 1): 0.6; Growth Rate (U2OS; 0 h, replicate number 2): 0.71; Growth Rate (U2OS; 6 h, replicate number 2): 0.94; Growth Rate (U2OS; 24 h, replicate number 2): 0.82"
COCCN(C)c1ccc(NC(=O)/C=C(\C)c2ccc3ccccc3c2)c(C(=O)O)c1,0.87,-0.37,,,,,,,,,,0.79,0.9,0.72,0.92,0.88,,0.91,,,"Growth Rate (Fibroblast; 0 h, replicate number 2): -0.29"
CC(C)(c1ccc(OCc2cccc(COc3ccc(C(=N)N)cc3)c2)cc1)c1ccc(O[C@@H]2O[C@H](C(=O)O)[C@@H](O)[C@H](O)[C@H]2O)cc1.O=C(O)C(F)(F)F,0.51,-0.08,0.87,,,-1,0.34,,,,0.92,0.36,0.61,0.97,0.68,-0.41,0.89,,,0.88,"Growth Rate (HEK-293T; 24 h, replicate number 1): 1; Growth Rate (U2OS; 0 h, replicate number 2): -0.17; Growth Rate (U2OS; 6 h, replicate number 2): 0.56"
C/C(=C\C(=O)Nc1ccccc1C(=O)[O-])c1ccc2ccccc2c1.[Na+],0.79,0.69,,,,,0.57,-0.21,0.94,,,0.38,0.69,0.95,,0.83,,0.94,0.97,0.83,"Growth Rate (Fibroblast; 0 h, replicate number 2): -0.44"
CCn1c(CNC(=O)c2nc(Cl)cnc2N)[n+](CC)c2ccc(C(=O)N(C)CCN(C)C)cc21.[Cl-],0.65,0.44,,0.77,0.84,,,-0.24,0.59,0.7,0.96,0.81,0.28,0.84,,,,0.84,,,"Growth Rate (HEK-293T; 6 h, replicate number 2): 0.55; Growth Rate (HEK-293T; 12 h, replicate number 2): 0.57; Growth Rate (Fibroblast; 0 h, replicate number 2): -0.38; Growth Rate (U2OS; 6 h, replicate number 2): 0.97"
Cc1nnc2n1-c1sc3c(c1C(c1ccccc1Cl)=NC2)C[C@@H](C(=O)N1CCOCC1)C3,-0.21,-0.7,,,,,,,0.81,,0.86,0.65,0.49,0.84,,,,,,,
N=C(N)NCCC[C@H](NC(=O)C(c1ccccc1)c1ccccc1)C(=O)NCc1ccc(CNC(N)=O)cc1.O=C(O)C(F)(F)F,0.26,,,,,-1,,-0.57,0.52,0.75,0.58,,0.97,,0.88,,,0.96,,0.9,
N=C(N)NCCC[C@@H](NC(=O)C(c1ccccc1)c1ccccc1)C(=O)NCc1ccc(CNC(N)=O)cc1.O=C(O)C(F)(F)F,0.56,,,0.96,0.9,-1,0.82,,0.86,0.94,0.91,0.07,0.44,0.7,0.87,0.92,0.99,0.86,,,"Growth Rate (HEK-293T; 12 h, replicate number 2): 0.76; Growth Rate (Fibroblast; 0 h, replicate number 2): 0.49"

# — ChEMBL document CHEMBL5303304, “EUbOPEN Chemogenomics Library - IncuCyte” (2023)
